From patent publication US5874461A, “Use of Nebivolol as an anti-atherogenic” (priority 1995, dated 1999) come the findings set out here.

Experiment [1] deals with primary embryonic hippocampal cultures. The experiment in a line: In vitro neuroprotection against nitric oxide and superoxide radicals (inhibition of LDH release). It counts as cell-based, rats. The conditions noted are these: for inhibition at 1 µM / inhibition at 0.1 µM: Rattus norvegicus, read-out: % neuroprotection, mean ± SD; for inhibition at 1 µM: 10^-6 M; for inhibition at 0.1 µM: 10^-7 M; for neuroprotection against DDTC or SNP: one or the other treatment paradigm. The procedure: Primary embryonic hippocampal cultures were prepared essentially as described previously (Pauwels et al., Van Aschouw, H. P., Peeters, L., Moeremans, M., Leysen, J. E. (1992) Chronic treatment with sabeluzole protects cultured rat brain neurons from the neurotoxic effects of excitatory amino acids. Synapse, 12:271-280). Hippocampal formations of rats at embryonic day 17 were dissected and dissociated in 0.05% trypsin, 0.1 mg/ml DNase I in DMEM (Dulbecco Modified Eagle Medium). Heat-inactivated horse serum (HS) was added to a concentration of 4%, and the cells were centrifuged, washed with DMEM, and resuspended in DMEM/Ham's F12 (3:1) containing 10% HS. The cells were plated at a density of 4×10^5 cells/cm^2 in poly L-lysine (0.001%) precoated multiwell-24 plates. On day 1 in culture, the medium was changed to chemically defined CDM-R12 medium (DMEM-HEPES/Ham's F12 (3:1) containing 0.26% bovine serum albumin, 30 nM sodium selenite, 3 nM 3,3',5 triiodo-L-thyronine, 0.35 μM retinol, 0.3 μM retinol acetate, 2.3 μM DL-a-tocopherol, 2.1 μM DL-a-tocopherol acetate, 3.6 μM linolenic acid, 3.6 μM linoleic acid, 0.125% human transferrin, […], 57.7 nM corticosterone, 49 U/I insulin, 0.4 μM biotin, 10 μM L-carnitine, 83 μM D(+)-galactose, 3.3 μM glutathione, 10 μM ethanolamine, 0.1 mM putrescine; Romijn, H. J., van Huizen, F., Wolters, P. S. (1984) Towards an improved serum-free, chemically defined medium for long-term culturing of cerebral cortex tissue. Neurosci. Behav. Rev., 8:301-334). Acute and prolonged pretreatment of the, cultures was essentially as described previously (Pauwels et al., 1992). Drugs were dissolved, and diluted in 10% or 1% hydroxypropyl-β-cyclodextrin such that the final concentrations of the solvent in the acute and chronic exposures were 0.1% and 0.01% respectively. Compound A as used in the following examples is [(RRSR)+(RRRS)+(SSSR) +(SSRS)]-α-[[[2-(chroman-2-yl)-2-hydroxy-ethyl]amino]methyl]-6-hydroxy-2-chromanmethanol ethanedioate (1:1).
For acute treatment, drug, or solvent was added to the cultures on day 7. After 20 min the medium was replaced with 200 μl chemically defined DMEM medium (the same composition of CDM-R12 medium but without Ham's F12) (control), or chemically defined DMEM medium containing the oxidative stress trigger. Oxidative stress triggers used were 1 mM sodium nitroprusside (SNP, a nitric oxide radical generating compound), or 7.5-10 mM diethyldithiocarbamate (DDTC, a superoxide dismutase inhibitor) and the test compound.
For prolonged pretreatment experiments, drug (concentration range 0.1 nM-10 μM) was added to the serum-free medium on days 1 and 4 of the culture. On day 7, the cultures were washed once with DMEM, and incubated with 0.2 ml chemically defined DMEM medium for 2 h at 37° C. The cells were washed and the medium was replaced by 0.2 ml chemically defined DMEM medium (control), or chemically defined DMEM medium containing the oxidative stress trigger (se above).
For both the acute experiment and the prolonged pretreatment experiment, extracellular and intracellular LDH (lactate dehydrogenase) activities were measured spectrophotometrically at 340 nm with an EPOS Analyzer 5060, according to the method of Bergmeyer (Bergmeyer, H. U. (1974) Biochemical reagents. In: Methods of Enzymatic Analysis. H. U. Bergmeyer, eds. Academic Press, New York, 2nd Ed., pp. […]). Extracellular LDH activity in the culture medium and cytoplasmic LDH activity measured after lysis of the cells in 1 ml H2 O, were used to calculate total LDH activity and % released LDH. % Neuroprotection refers to % inhibition of LDH release, where oxidative stress trigger-induced LDH release is defined as 0% protection, and basal (control) level of LDH release is defined as 100% protection.
Neuronal primary hippocampal cultures were grown in CDM-R12 medium for 7 days. Test compounds were either administered on days 1 and 4 of culture (prolonged pretreatment) or on day 7 of culture (acute treament). […]

The subject of the next experiment is C6 glioma cells. As to the kind of experiment: Fluorescence measurement of intracellular peroxides in C6 glioma cells after glutamate. The experiment is classed as cell-based. The conditions noted are these: for glutamate-mediated increase in peroxidation: 10 mM glutamate; for Intracellular peroxides (mean ± SD, n): glutamate 10 mM, without or with compound 1 μM. An excerpt: Competitive inhibition by glutamate of cystine uptake in certain cells leads to glutathione depletion and oxidative stress. This oxidative stress model has been described for glial C6 glioma cells (Kato et al., 1992. A mechanism for glutamate toxicity in the C6 glioma cells involving inhibition of cystine uptake leading to glutathione depletion. Neurosci. 48:903-914) and for the neuronal cell line N18RE105 (Murphy et al., 1989. Glutamate toxicity in a neuronal cell line involves inhibition of cystine transport leading to oxidative stress. Neuron 2:1547-1558).
Cell culture: The C6 glioma cell line (American Type Culture Collection, CCL 107) was cultivated in DMEM supplemented with 2 or 4 mM glutamine, 1 mM pyruvate and 5 or 10% heat-inactivated foetal calf serum. Cultures were maintained at 37° C. in an air/5~10% CO2, water saturated atmosphere.
Glutathione depletion and evaluation of drugs as antioxidants: Experiments were carried out with cultures plated at 30,000~50,000 cells/cm^2 in 24-well culture plates (for toxicity and lipid peroxide measurements) or at 136,000 cells/cm^2 in 96-well culture plates (for GSH determination). After 8-24 hr, the cultures were switched to culture medium in the absence or presence of the cystine uptake inhibitor glutamate at a final concentration of 10 mM. In order to test drugs for inhibition of oxidative stress, the drug was added together with glutamate (final concentration of solvent was 0.01% hydroxypropyl-β-cylodextrin, 0.1% DMSO). Intracellular glutathione levels were measured after 6~8 hr, lipid peroxides were measured after 14~20 hr, and toxicity and protection were analysed after 48 hr using an LDH assay according to the method of Bergmeyer and Bernt (UV-assay with pyruvate and NADH. In: Methods of Enzymatic Analysis. 1974. H. U. Bergmeyer, ed. Acad. Press, New York, 2nd Ed., pp 574-579).
Fluorescence measurement of intracellular peroxides: Formation of intracellular peroxides was detected using 6-carboxy-2',7'-dichlorodihydrofluorescin diacetate, di(acetoxymethyl ester) (C-DCDHF, Molecular Probes). C-DCDHF was dissolved in DMSO at a concentration of 10 mM and stored at -70° C. under nitrogen. After exposure of the culture to the glutathione depleting agents, the cells were loaded with 10 μM C-DCDHF for one hour at 37° C. Medium was aspirated off, PBS was added to the cells, and plates were read in a Cytofluor II microplate reader (PerSeptive Biosystems). Excitation and emission wavelength were selected with a 485/530 nm filter pair. The results were expressed in relative fluorescence units/μg protein.

Setting [2] is: DDTC trigger, prolonged pretreatment.
Where [3] appears, read: SNP trigger, prolonged pretreatment.

Like-named read-outs stand apart in the source and are kept apart here.

Take `O[C@H](CNC[C@@H](O)[C@H]1CCc2cc(F)ccc2O1)[C@@H]1CCc2cc(F)ccc2O1` (relative stereo) [nebivolol, (RSSS) and (SRRR) α,α'-iminobis(methylene)bis[6-fluoro-2-chroman-methanol]]: the inhibition at 1 µM was 29 ± 16% in experiment [1] (DDTC trigger, acute treatment); 37 ± 23% in experiment [1] (setting [2]); < 25% in experiment [1] (SNP trigger, acute treatment); 36 ± 18% in experiment [1] (setting [3]). For the same compound, the inhibition at 0.1 µM in experiment [1] (DDTC trigger, acute treatment) is 32 ± 28%; in experiment [1] (setting [2]), < 25%; in experiment [1] (SNP trigger, acute treatment), < 25%; in experiment [1] (setting [3]) it was 26 ± 13%. The “neuroprotection against DDTC or SNP” value in experiment [1] is listed as “can confer neuroprotection”. In the experiment on C6 glioma cells, the “glutamate-mediated increase in peroxidation” value was “inhibited the glutamate-mediated increase in peroxidation”. The “Intracellular peroxides (mean ± SD, n)” value in the experiment on C6 glioma cells is 155 ± 13 Relative fluorescence units/μg.
As for `Oc1ccc2c(c1)CCC(C(O)CNCC(O)C1CCc3ccccc3O1)O2` (stereo not drawn) [Compound A, [(RRSR)+(RRRS)+(SSSR) +(SSRS)]-α-[[[2-(chroman-2-yl)-2-hydroxy-ethyl]amino]methyl]-6-hydroxy-2-chromanmethanol ethanedioate (1:1)], the inhibition at 1 µM in experiment [1] (DDTC trigger, acute treatment) was 30 ± 28%; in experiment [1] (setting [2]), < 25%; in experiment [1] (SNP trigger, acute treatment), < 25%; in experiment [1] (setting [3]), 38%. Moreover, the inhibition at 0.1 µM was 35 ± 32% in experiment [1] (DDTC trigger, acute treatment); < 25% in experiment [1] (setting [2]); < 25% in experiment [1] (SNP trigger, acute treatment); 39 ± 13% in experiment [1] (setting [3]). Moreover, the “neuroprotection against DDTC or SNP” value in experiment [1] is listed as “can confer neuroprotection”. Moreover, the “glutamate-mediated increase in peroxidation” value in the experiment with C6 glioma cells was “inhibited the glutamate-mediated increase in peroxidation”. The “Intracellular peroxides (mean ± SD, n)” value with C6 glioma cells is 137 ± 8 Relative fluorescence units/μg.
